Target: T1, N-methyl-D-aspartate receptor (NMDAR), native in hippocampal neurons (Rattus norvegicus, UniProt P35439+Q00959+Q00960)
T1 construct: gene Grin1; native heteromeric receptor in primary rat hippocampal neurons; with GluN2A / GluN2B (native mixture, mostly GluN1/2A/2B)
Test: whole-cell patch clamp of NMDA-activated currents in primary rat hippocampal neurons ([…] NMDA, […] glycine)
Type: cell-based

T1 sequence (Q00959 23-1464, other chains not shown): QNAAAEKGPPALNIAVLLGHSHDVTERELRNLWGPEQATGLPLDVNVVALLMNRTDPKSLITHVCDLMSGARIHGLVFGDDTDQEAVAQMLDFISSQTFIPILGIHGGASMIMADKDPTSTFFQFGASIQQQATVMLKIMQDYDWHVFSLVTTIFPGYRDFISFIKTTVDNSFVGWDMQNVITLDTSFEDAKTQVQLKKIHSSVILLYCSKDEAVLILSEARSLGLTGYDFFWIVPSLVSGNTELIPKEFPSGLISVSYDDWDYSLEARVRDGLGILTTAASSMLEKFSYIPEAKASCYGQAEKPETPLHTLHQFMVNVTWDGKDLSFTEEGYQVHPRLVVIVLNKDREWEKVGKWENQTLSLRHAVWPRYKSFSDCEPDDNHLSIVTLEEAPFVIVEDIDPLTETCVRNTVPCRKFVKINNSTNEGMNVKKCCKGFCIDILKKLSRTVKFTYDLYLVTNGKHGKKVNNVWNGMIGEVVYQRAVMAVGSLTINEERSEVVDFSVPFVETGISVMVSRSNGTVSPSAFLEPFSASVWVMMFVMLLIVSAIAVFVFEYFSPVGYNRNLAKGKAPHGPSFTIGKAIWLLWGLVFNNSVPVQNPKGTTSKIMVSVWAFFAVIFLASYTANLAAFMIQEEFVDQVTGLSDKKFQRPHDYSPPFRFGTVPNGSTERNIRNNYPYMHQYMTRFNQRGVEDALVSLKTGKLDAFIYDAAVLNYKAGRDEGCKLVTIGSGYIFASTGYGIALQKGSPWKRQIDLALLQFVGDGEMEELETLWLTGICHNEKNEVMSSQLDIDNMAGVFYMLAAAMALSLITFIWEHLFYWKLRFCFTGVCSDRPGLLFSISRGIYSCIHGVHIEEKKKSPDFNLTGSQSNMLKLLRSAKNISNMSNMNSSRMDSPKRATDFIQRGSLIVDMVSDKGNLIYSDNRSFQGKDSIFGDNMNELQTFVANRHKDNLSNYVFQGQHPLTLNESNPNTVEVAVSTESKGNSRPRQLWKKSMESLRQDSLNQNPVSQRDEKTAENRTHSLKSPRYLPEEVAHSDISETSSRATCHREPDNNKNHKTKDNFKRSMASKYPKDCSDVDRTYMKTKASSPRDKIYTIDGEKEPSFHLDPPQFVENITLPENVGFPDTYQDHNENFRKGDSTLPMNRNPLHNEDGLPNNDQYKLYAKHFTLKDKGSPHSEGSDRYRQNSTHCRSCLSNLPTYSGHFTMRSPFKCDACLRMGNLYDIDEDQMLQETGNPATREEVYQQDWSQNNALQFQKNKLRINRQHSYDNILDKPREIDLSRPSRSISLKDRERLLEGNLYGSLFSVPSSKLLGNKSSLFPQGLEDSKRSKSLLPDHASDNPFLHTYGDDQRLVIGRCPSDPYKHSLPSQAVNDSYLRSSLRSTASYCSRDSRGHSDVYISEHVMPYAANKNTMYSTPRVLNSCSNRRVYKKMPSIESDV
T1 sequence (Q00960 27-1482, other chains not shown): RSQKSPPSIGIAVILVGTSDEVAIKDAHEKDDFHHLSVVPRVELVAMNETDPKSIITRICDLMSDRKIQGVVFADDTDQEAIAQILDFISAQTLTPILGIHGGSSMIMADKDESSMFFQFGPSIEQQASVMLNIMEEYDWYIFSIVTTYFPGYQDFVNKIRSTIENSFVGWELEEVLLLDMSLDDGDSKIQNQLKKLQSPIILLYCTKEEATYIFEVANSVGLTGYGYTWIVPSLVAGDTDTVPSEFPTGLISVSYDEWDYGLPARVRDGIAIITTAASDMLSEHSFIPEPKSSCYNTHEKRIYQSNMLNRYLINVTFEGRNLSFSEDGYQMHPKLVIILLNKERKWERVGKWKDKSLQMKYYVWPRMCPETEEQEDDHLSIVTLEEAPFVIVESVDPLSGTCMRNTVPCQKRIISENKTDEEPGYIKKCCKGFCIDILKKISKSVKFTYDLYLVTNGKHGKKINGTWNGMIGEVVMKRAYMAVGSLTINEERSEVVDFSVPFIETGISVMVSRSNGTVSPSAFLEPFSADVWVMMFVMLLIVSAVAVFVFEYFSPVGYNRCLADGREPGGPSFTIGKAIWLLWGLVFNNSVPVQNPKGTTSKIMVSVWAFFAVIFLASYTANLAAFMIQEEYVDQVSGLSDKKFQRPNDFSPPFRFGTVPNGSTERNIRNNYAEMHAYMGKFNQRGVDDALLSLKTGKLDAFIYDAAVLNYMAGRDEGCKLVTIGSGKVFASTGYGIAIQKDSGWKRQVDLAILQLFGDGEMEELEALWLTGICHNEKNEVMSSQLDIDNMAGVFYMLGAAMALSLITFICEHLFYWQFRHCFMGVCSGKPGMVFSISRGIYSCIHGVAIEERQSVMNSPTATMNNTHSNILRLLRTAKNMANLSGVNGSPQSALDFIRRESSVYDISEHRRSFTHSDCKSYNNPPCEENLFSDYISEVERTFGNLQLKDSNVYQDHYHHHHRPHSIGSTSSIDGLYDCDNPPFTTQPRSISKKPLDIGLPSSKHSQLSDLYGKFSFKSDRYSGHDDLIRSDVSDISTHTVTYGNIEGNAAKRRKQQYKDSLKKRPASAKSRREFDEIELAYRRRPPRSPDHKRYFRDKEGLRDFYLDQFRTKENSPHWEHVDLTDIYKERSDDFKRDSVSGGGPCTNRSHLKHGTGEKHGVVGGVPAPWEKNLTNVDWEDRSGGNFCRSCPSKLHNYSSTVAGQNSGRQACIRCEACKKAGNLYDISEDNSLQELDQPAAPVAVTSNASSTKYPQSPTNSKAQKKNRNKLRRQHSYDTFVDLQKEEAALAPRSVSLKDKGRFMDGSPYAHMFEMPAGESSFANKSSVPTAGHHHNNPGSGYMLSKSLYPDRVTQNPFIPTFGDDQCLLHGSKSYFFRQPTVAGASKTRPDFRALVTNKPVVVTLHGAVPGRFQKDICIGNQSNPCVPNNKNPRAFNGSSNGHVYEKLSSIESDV

For `CC(C)[C@@H](CC[C@@H](C)[C@H]1CC[C@H]2[C@@H]3[C@H](O)C[C@H]4C[C@@H](NCCCNCCCCNCCCN)CC[C@]4(C)[C@H]3CC[C@]12C)OS(=O)(=O)O` [TRO, trodusquemine], which IC50 is on record?
Its IC50 is 5.1 nM.

— publication PMC12220853, “Natural aminosterols inhibit NMDA receptors with low nanomolar potency” (The Febs Journal, 2025)
